“And” between values parts separate entries of the source, which are not always exact repeats. Identical values can stand only once. “Also recorded” adds a separate entry of the source.
Legend:
[1] = molecular target: T1, human testicular microsomal 17α-hydroxylase/C17,20-lyase (Homo sapiens, UniProt P05093); experiment: Inhibition of 17α-hydroxylase/C17,20-lyase activity in human testicular microsomes ([3H]-acetic acid release); format: biochemical
T1 construct: Testicular and prostatic microsomes were prepared as described previously; from tissue; host or cells: human testis, microsomal fraction
T1 sequence (P05093 1-508): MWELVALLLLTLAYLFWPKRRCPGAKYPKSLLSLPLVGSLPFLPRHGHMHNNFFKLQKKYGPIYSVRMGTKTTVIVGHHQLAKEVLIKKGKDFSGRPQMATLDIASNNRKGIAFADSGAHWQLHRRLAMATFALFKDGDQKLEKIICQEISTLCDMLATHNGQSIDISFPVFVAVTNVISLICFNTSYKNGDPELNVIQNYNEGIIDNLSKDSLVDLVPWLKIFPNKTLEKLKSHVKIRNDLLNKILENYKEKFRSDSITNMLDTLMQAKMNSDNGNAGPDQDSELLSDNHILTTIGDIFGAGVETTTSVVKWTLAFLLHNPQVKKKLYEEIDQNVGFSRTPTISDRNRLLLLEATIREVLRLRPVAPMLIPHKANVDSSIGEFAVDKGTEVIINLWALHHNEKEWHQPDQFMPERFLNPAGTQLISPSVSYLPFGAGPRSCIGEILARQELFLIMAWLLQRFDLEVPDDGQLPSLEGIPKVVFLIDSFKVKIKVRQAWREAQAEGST
Text: (§1) Prostate cancer is second only to lung cancer as the leading cause of death and is the most prevalent cancer amongst men in the USA and Europe and accounts for about a third of all cancers diagnosed each year in men. In the UK, the incidence of prostate cancer has almost doubled over the last 30 years. Similarly, in 1998, it was estimated that more than 334 500 cases were diagnosed and more than 41 800 men died of the disease in the USA (Dijkman and Debruyne, 1996). The prostate gland is under the influence of androgens and often becomes enlarged in older men. […] Localized prostate cancer is curable and although the metastatic form of the disease is difficult to manage, endocrine therapy does reduce the death rate from the disease and is first-line treatment for all patients. In the testis and adrenals, 17-hydroxylase/C17,20 -lyase converts the C21 steroid precursors to the corresponding C19 andro- gens. […] Both T and DHT stimu- late prostatic growth, although DHT plays a much more important role than T in the organogenesis and homeostasis of the prostate (Wilson, 1996). Current endocrine therapies such as orchidectomy and luteinizing hormone releasing hormone (LHRH) agonists result in reduced androgen production by the testis and are useful in the early stages of prostate cancer. However, these treatment options fail to alter androgen production by the adrenals that may contribute androgen precursors to the prostate. The addition of flutamide, an anti-androgen to inhibit the action of androgens on the prostate, is only partially effective as the disease frequently progresses due to mutations in the androgen receptor, which can utilize flutamide as an agonist. […] Androgen- dependent human prostate cancer xenografts (PC-82) were grown in nude mice and the effects of L-39 (50 mg kg-1 day-1 ) on tumour growth and prostate-specific antigen (PSA) levels were determined after 28 days. […] We also evaluated the pharmacokinetic properties of L-39 in male mice in this investigation. […]

[2] = molecular target: T2, 5α-reductase in human prostatic microsomes (Homo sapiens, UniProt P31213); experiment: 5α-Reductase assay in human prostatic (BPH) microsomes; format: biochemical
T2 sequence (P31213 1-254): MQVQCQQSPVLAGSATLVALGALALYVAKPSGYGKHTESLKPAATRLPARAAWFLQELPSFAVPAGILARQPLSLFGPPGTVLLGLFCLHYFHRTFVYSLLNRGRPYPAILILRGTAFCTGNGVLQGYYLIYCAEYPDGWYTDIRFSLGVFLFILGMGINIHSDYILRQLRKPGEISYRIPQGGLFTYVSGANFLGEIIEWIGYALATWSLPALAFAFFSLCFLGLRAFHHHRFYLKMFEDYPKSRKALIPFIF
Text: as §1

[3] = test system: PC-82 human prostate cancer xenografts; experiment: Human PC-82 prostate cancer xenograft model: tumour volume and weight; format: in vivo, male athymic Ncr-nu mice
Text: as §1

T and DHT concentrations = experiment: Testosterone and DHT RIA in serum and PC-82 tumours of treated mice; format: in vivo, male athymic Ncr-nu mice; details: 50 mg kg-1 day-1, s.c., 28 days, P < 0.05
Text: as §1, with “1996).” for “1996). Current endocrine therapies such as orchidectomy and luteinizing hormone releasing hormone (LHRH) agonists result in reduced androgen production by the testis and are useful in the early stages of prostate cancer. However, these treatment options fail to alter androgen production by the adrenals that may contribute androgen precursors to the prostate. The addition of flutamide, an anti-androgen to inhibit the action of androgens on the prostate, is only partially effective as the disease frequently progresses due to mutations in the androgen receptor, which can utilize flutamide as an agonist.”

[4] = test system: prostate-specific antigen (PSA) levels; experiment: PSA ELISA in serum and PC-82 tumours of treated mice; format: in vivo, male athymic Ncr-nu mice; details: 50 mg kg-1 day-1, s.c., 28 days, P < 0.01
Text: as §1, with “1996).” for “1996). Current endocrine therapies such as orchidectomy and luteinizing hormone releasing hormone (LHRH) agonists result in reduced androgen production by the testis and are useful in the early stages of prostate cancer. However, these treatment options fail to alter androgen production by the adrenals that may contribute androgen precursors to the prostate. The addition of flutamide, an anti-androgen to inhibit the action of androgens on the prostate, is only partially effective as the disease frequently progresses due to mutations in the androgen receptor, which can utilize flutamide as an agonist.”

[5] = Gross examination of vital organs, organ and body weights after treatment; format: in vivo, male athymic Ncr-nu mice; details: 50 mg kg-1 daily, s.c., 28 days
Text: as §1, with “1996).” for “1996). Current endocrine therapies such as orchidectomy and luteinizing hormone releasing hormone (LHRH) agonists result in reduced androgen production by the testis and are useful in the early stages of prostate cancer. However, these treatment options fail to alter androgen production by the adrenals that may contribute androgen precursors to the prostate. The addition of flutamide, an anti-androgen to inhibit the action of androgens on the prostate, is only partially effective as the disease frequently progresses due to mutations in the androgen receptor, which can utilize flutamide as an agonist.”

[6] = Pharmacokinetic studies after a single s.c. or i.v. bolus dose, plasma HPLC; format: in vivo, male Balb/c mice; parameters: AUC0- / Cmax: unit not given here
Text: Prostate cancer is second only to lung cancer as the leading cause of death and is the most prevalent cancer amongst men in the USA and Europe and accounts for about a third of all cancers diagnosed each year in men. In the UK, the incidence of prostate cancer has almost doubled over the last 30 years. Similarly, in 1998, it was estimated that more than 334 500 cases were diagnosed and more than 41 800 men died of the disease in the USA (Dijkman and Debruyne, 1996). The prostate gland is under the influence of androgens and often becomes enlarged in older men. […] Localized prostate cancer is curable and although the metastatic form of the disease is difficult to manage, endocrine therapy does reduce the death rate from the disease and is first-line treatment for all patients. In the testis and adrenals, 17-hydroxylase/C17,20 -lyase converts the C21 steroid precursors to the corresponding C19 andro- gens. […] Both T and DHT stimu- late prostatic growth, although DHT plays a much more important role than T in the organogenesis and homeostasis of the prostate (Wilson, 1996). Current endocrine therapies such as orchidectomy and luteinizing hormone releasing hormone (LHRH) agonists result in reduced androgen production by the testis and are useful in the early stages of prostate cancer. However, these treatment options fail to alter androgen production by the adrenals that may contribute androgen precursors to the prostate. The addition of flutamide, an anti-androgen to inhibit the action of androgens on the prostate, is only partially effective as the disease frequently progresses due to mutations in the androgen receptor, which can utilize flutamide as an agonist. […] This may be achieved through dual inhibition of 17- hydroxylase/C17,20 -lyase and 5-reductase (Li et al, 1992; Klus et al, 1996). […] Androgen- dependent human prostate cancer xenografts (PC-82) were grown in nude mice and the effects of L-39 (50 mg kg-1 day-1 ) on tumour growth and prostate-specific antigen (PSA) levels were determined after 28 days. […] Pharmacokinetic studies were also conducted in male Balb/c mice. […] (c) 2000 Cancer Research Campaign Keywords: 17-hydroxylase/C17,20 -lyase; 5-reductase; androgens; prostate cancer; pharmacokinetics 74 Received 9 November 1999 Revised 4 February 2000 Accepted 10 February 2000 Correspondence to: AM Brodie British Journal of Cancer (2000) 83(1), 74-82 (c) 2000 Cancer Research Campaign doi: 10.1054/ bjoc.2000.1136, available online at http://www.idealibrary.com on *Present address: Department of Pharmaceutical Sciences, Temple University School of Pharmacy, Philadelphia, PA 19140, USA. Present address: School of Pharmaceutical Sciences, Beijing Medical University, China. Effects of L-39 in vitro and in vivo 75 British Journal of Cancer (2000) 83(1), 74-82 (c) 2000 Cancer Research Campaign advanced prostate cancer (Small et al, 1997). […] 5-Reductase occurs in two isoforms namely, type I and type II. The type II isoenzyme is the predominant form in the human prostate. […] In the present investigation, we describe the effects of L-39, a novel androstene derivative, in vitro and on human prostate cancer xenografts in nude mice. We also evaluated the pharmacokinetic properties of L-39 in male mice in this investigation. […] [21-3 H]-17-hydroxy- pregnenolone ([…] ) was prepared in our laboratory as previously described (Njar et al, 1998). [1,2,6,7-3 H]- Testosterone (96.5 Ci mmol-1 ) and [4-14 C]-dihydrotestosterone (56.5 mCi mmol-1 ) were obtained from Dupont (Boston, MA, USA).

Solubility in water = format: physicochemical
androgen receptors = test system: androgen receptors; parameters: method as in Long et al, 1999; details: L-39 5 μM, R1881 5 nM, LNCaP cultures; ref Long et al, 1999; cited from earlier work
[7] = test system: LNCaP human prostate cancer cells; parameters: method as in Long et al, 1999; details: ref Long et al, 1999; cited from earlier work
[8] = test system: LNCaP human prostatic cells grown as tumours; parameters: method as in Long et al, 1999; details: ref Long et al, 1999; cited from earlier work
[9] = molecular target: T1, human testicular microsomal 17α-hydroxylase/C17,20-lyase; parameters: method as in Nnane et al, 1998; details: ref Nnane et al, 1998; cited from earlier work
[10] = intravenous 50 mg kg-1, single bolus, mouse plasma
[11] = subcutaneous 50 mg kg-1, single bolus, mouse plasma
[12] = subcutaneous 100 mg kg-1, single bolus, mouse plasma

C[C@]12CCC(=O)C=C1CC[C@@H]1[C@@H]2CC[C@]2(C)C(c3ccno3)=CC[C@@H]12 [L-39, 17-(5′-Isoxazolyl)androsta-4,16-dien-3-one]
type of inhibition of 17α-hydroxylase/C17,20-lyase [1]: non-competitive
Ki ([1]; Lineweaver-Burke slopes): 22 nM
IC50 ([1]; substrate 17-hydroxypregnenolone, 1 h, pH 7.4): 59 nM
type of inhibition of 5α-reductase [2]: competitive
Ki ([2]; Lineweaver-Burke slopes, read-out: Ki, inhibition of 5α-reductase): 28 nM
IC50 ([2]; T 40 nM, 10 min, pH 7.4, read-out: IC50, inhibition of 5α-reductase): 33 nM
diminution of PC-82 tumour weights ([3]; 50 mg kg-1 daily, s.c., 28 days, vs control): 70%
increase in tumour volume over 28 days ([3]; 50 mg kg-1 daily, s.c., control increased twofold): 1.25 fold
potency in reducing growth of PC-82 tumour xenografts, compared with other therapies ([3]; 50 mg kg-1 day-1, s.c., 28 days): to a similar extent as castration or flutamide treatment
reduction of DHT concentration in PC-82 tumour xenografts (T and DHT concentrations): 94%
reduction of T concentration in PC-82 tumour xenografts (T and DHT concentrations): 64%
reduction of tumour PSA levels [4]: 50%
gross examination of liver, kidney, heart and adrenal gland [5]: did not reveal toxicity
weight of vital organs and body weight [5]: did not change significantly
metabolism in mice ([6]; initial observations, metabolite not characterized): metabolized to a more polar metabolite
time after intravenous administration at which L-39 was not detectable in plasma ([6]; intravenous 50 mg kg-1): 4 h
AUC0- [6, 10]: 14.41
CI (total clearance) [6, 10]: 3.47 0.14 l h-1 kg-1 and 3.5 l h-1 kg-1
Kel (terminal elimination rate constant) [6, 10]: 1.05 0.05 h-1 and 1.052 h-1
MTR [6, 10]: 1.15 h
T1/2 [6, 10]: 0.66 h
Vd [6, 10]: 3.30 0.13 l kg-1
AUC0- [6, 11]: 4.09
CI (total clearance) [6, 11]: 12.24 0.48 l h-1 kg-1
Cmax [6, 11]: 1.42
Kel [6, 11]: 0.46 0.02 h-1
MTR [6, 11]: 2.52 h
T1/2 [6, 11]: 1.51 h
Tmax [6, 11]: 0.75 h
Vd [6, 11]: 26.73 1.04 l kg-1
AUC0- [6, 12]: 4.04
CI (total clearance) [6, 12]: 24.78 1.0 l h-1 kg-1
Cmax [6, 12]: 1.30
Kel [6, 12]: 0.53 0.03 h-1
MTR [6, 12]: 2.41 h
T1/2 [6, 12]: 1.31 h
Tmax [6, 12]: 1.0 h
Vd [6, 12]: 46.80 1.84 l kg-1
solubility in water (Solubility in water): poorly soluble in water
anti-androgenic activity: binding of labelled R1881 to androgen receptors (androgen receptors): preventing the labelled synthetic androgen R1881 (5 n M) from binding to the androgen receptors
proliferation of LNCaP cells in culture [7]: inhibits proliferation
growth of LNCaP tumours in male SCID mice [8]: effective at slowing LNCaP human prostatic cells grown in male SCID mice as tumours; also recorded: more effective than flutamide

CC(C)(C)NC(=O)[C@H]1CC[C@H]2[C@@H]3CC[C@H]4NC(=O)C=C[C@]4(C)[C@H]3CC[C@]12C [finasteride]
activity against 17-hydroxylase/C17,20-lyase [9]: no activity

Reference: article PMC2374539, “Anti-tumour effects and pharmacokinetic profile of 17-(5′ -isoxazolyl)androsta-4,16-dien-3-one (L-39) in mice: an inhibitor of androgen synthesis” (British Journal of Cancer, 2000)
